For four molecules, IC50 and ED50 results are on record in patent publication US4847272A, “Thianaphthene derivatives” (Sankyo Company Limited, priority 1986, dated 1989).

Structures are written as SMILES. Structures can show the parent of a compound that is named as a salt.

In assay [1] the target is T1, Thromboxane A2 Synthetase (Oryctolagus cuniculus, UniProt G1TAZ9).
T1 construct: The platelet microsome fraction was separated from rabbit and from human blood; from tissue; host or cells: rabbit blood platelets, microsome fraction
T1 sequence (G1TAZ9 1-530): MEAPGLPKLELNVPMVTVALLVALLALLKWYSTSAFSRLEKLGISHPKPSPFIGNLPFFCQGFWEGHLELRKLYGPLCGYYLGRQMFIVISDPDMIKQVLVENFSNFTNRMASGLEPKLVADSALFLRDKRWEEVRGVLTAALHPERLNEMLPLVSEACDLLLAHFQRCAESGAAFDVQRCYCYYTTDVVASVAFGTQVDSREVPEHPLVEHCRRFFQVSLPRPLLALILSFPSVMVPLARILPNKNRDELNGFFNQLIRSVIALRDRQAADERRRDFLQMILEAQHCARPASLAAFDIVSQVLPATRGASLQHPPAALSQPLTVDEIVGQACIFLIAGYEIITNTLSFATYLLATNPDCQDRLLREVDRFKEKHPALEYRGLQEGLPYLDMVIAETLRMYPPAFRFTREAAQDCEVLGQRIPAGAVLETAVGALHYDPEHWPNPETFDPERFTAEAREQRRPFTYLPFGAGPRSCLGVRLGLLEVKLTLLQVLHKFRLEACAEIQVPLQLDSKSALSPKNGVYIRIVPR
The experiment in a line: Inhibition of Thromboxane A2 Synthetase, rabbit platelet microsomes. Type of assay: biochemical. As to conditions: 1-[14C] arachidonic acid 0.1 mM, 1 minute at 22° C., read-out: IC50, concentration required to inhibit the activity of thromboxane synthetase by 50%. The protocol:
(§1) The platelet microsome fraction was separated from rabbit and from human blood by the method of Needleman et al. [Needleman et al., Science, 193, 163 (1976)]. The microsomal TXA2 synthetase activity in the presence of various of the compounds of the invention at various concentrations was assayed by a modification of the method of […] et al. [[…] et al., Prostaglandins, 21, 543 (1981)] by incubating the microsome fractions with labelled 1-[^14 C] arachidonic acid at a concentration of 0.1 mM for 1 minute at 22° C., to a final volume of 0.2 ml. The reaction was terminated by the addition of […] of 0.2M citric acid, and then the mixture was extracted with 1.5 ml of ethyl acetate. […] The developing solvent for the chromatography was a 90:8:1:0.8 by volume mixture of chloroform, methanol, acetic acid and water. […] The results are shown in the following Tables 1 and 2 as the IC50, i.e. the concentration required to inhibit the activity of thromboxane synthetase by 50%. The results using rabbits platelet microsomes are given in Table 1, whilst the results using human platelet microsomes are given in Table 2.

A further assay deals with rabbits. Kind of assay: Antithrombotic Activity in Rabbits (sudden death after i.v. arachidonic acid). The format is in vivo, male Japanese white rabbits. To be noted: Oryctolagus cuniculus, 1 h; oral, one hour before 1.3 mg/kg arachidonic acid i.v.; Probit's method. As for the experimental part:
This test was carried out by a modification of the method of Silver et al. [Science, 183, 1085 (1974)]. The test animals used were male Japanese white rabbits of approximately 3 kg body weight. Each group of rabbits was administered orally the test compound at an appropriate dose and then, one hour after the oral administration, each was given 1.3 mg/kg of arachidonic acid by intravenous injection. The test animals were observed and sudden deaths during the test period were recorded. The ED50 was determined by Probit's method. Unmedicated rabbits were employed as a control, without administering any test compound, but these were all dead within several minutes after the injection of arachidonic acid, as a result of pulmonary thromboembolisms.

Assay [2] concerns the target T2, Thromboxane A2 Synthetase (Homo sapiens, UniProt P24557).
T2 construct: The platelet microsome fraction was separated from rabbit and from human blood; from tissue; host or cells: human blood platelets, microsome fraction
T2 sequence (P24557 1-533): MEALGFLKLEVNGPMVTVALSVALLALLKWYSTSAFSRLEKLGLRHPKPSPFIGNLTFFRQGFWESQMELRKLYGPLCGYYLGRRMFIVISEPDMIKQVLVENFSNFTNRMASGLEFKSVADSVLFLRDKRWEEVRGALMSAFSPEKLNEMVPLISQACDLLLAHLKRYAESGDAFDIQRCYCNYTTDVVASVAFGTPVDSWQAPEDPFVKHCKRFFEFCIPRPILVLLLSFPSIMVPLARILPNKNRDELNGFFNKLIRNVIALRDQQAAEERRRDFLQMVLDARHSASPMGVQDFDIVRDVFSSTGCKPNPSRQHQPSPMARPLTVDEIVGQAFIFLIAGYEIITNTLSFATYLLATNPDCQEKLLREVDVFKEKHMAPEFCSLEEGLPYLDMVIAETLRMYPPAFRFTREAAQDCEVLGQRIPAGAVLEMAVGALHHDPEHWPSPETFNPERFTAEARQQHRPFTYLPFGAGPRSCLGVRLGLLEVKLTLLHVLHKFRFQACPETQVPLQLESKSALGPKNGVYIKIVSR
Kind of assay: Inhibition of Thromboxane A2 Synthetase, human platelet microsomes. The format is biochemical. To be noted: 1-[14C] arachidonic acid 0.1 mM, 1 minute at 22° C., read-out: IC50, concentration required to inhibit the activity of thromboxane synthetase by 50%. As for the experimental part: as §1

Broadly, the ED50 is the dose at which the effect has come halfway, by size or by number of responders. Higher therefore signals weaker potency. For `Cl.O=C(O)c1ccc(OCCn2ccnc2)cc1` [Dazoxiben, 4-[2-(1-imidazolyl)ethoxy]benzoic acid hydrochloride, reference compound], the IC50 in assay [1] amounted to 106 nM. It took a dose of 1.1 mg/kg to reach the 50% effect level in the assay with rabbits (ED50).

For the molecule `O=C(O)C1CCc2cc(Cn3ccnc3)sc2C1` (stereo not drawn) [Compound A, 4,5,6,7-tetrahydro-2-(1-imidazolyl)methylthianaphthene-6-carboxylic acid hydrochloride], the IC50 in assay [1] was determined as 26 nM; in assay [2], 30 nM. In the assay with rabbits, the ED50 is 0.27 mg/kg.

For the molecule `O=C(O)C1=Cc2sc(Cn3ccnc3)cc2CC1` [Compound B, sodium 4,5-dihydro-2-(1-imidazolyl)methylthianaphthene-6-carboxylate], the figures for the IC50 in assay [1] and in assay [2] were 13 nM and 31 nM, respectively. Also, in the assay with rabbits, the 50% effect level (ED50) was put at a dose of 0.12 mg/kg.

For `O=C(O)C1CCc2sc(Cn3ccnc3)cc2C1` (stereo not drawn) [Compound C, 4,5,6,7-tetrahydro-2-(1-imidazolyl)methylthianaphthene-5-carboxylic acid hydrochloride], the IC50 in assay [1] is 86 nM.
